# According to patent publication US7897616B2, “Imidazopyridin-2-one derivatives as inhibitors of lipases and phospholipases” (Sanofi-Aventis, priority 2006, dated 2011):
# Molecular target: T1, endothelial lipase (EL) (Homo sapiens, UniProt Q9Y5X9)
# T1 construct: made in house; host or cells: recombinant CHO or HEK293 cell lines; concentrated conditioned medium used as enzyme solution
# T1 sequence (Q9Y5X9 21-500): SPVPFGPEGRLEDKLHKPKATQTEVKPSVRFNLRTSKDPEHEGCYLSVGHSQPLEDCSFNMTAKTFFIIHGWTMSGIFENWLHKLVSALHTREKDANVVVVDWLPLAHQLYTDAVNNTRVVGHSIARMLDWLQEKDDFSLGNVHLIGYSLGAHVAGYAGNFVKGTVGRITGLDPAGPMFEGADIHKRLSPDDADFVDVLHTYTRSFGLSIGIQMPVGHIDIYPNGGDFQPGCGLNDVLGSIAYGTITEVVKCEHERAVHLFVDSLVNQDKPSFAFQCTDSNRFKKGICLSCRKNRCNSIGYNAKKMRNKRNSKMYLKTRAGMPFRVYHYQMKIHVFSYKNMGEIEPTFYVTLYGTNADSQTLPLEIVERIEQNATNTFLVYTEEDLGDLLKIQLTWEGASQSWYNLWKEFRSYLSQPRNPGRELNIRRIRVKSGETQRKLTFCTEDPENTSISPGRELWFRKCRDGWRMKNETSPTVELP
# Experiment: EL inhibition assay (EL activity assay with fluorescent Bodipy phospholipid substrate)
# Type: biochemical
# Conditions: EL from conditioned medium of recombinant cell lines (CHO, HEK293); 37° C., 90 minutes; Bodipy-labeled phosphocholine substrate
# Method: The activity of the compounds of the invention of the formula I was tested in the following enzyme assay system: […]
# EL is released as secretory protein in high concentration into cell culture medium (conditioned medium) by recombinant cell lines (CHO, HEK293). This is employed as an enzyme solution after concentration.
# The phospholipase-specific substrate 1,2-bis(4,4-difluoro-5,7-dimethyl-4-bora-3a,4a-diaza-s-indacene-3-undecanoyl)-sn-glycero-3-phosphocholine (manufacturer Molecular Probes) is used to characterize the enzymatic activity of endothelial lipase and the effect of inhibitors. Hydrolysis of the A1 ester linkage of this phospholipid by the enzyme liberates a fatty acid labeled with the fluorescent dye Bodipy which can be detected after separation by thin-layer chromatography on an HPTLC plate (silica gel 60, Merck) or directly in the reaction vessel by measuring the fluorescence. The substrate solution is prepared by dissolving 100 μg of 1,2-bis(4,4-difluoro-5,7-dimethyl-4-bora-3a,4a-diaza-s-indacene-3-undecanoyl)-sn-glycero-3-phospho-choline (manufacturer Molecular Probes) in 100 μl of DMSO and taking up in 2.4 mg of tripalmitin (Sigma) in 393 μl of chloroform which comprises 20 mg/ml of DOP-choline (1,2-dioleoyl-sn-glycero-3-phosphocholine). 39.3 μl of this lipid mixture are transferred into a fresh reaction vessel, and the solvent is evaporated off. The lipid mixture is dissolved in 4 ml of 200 mM TRIS-HCl, 150 mM sodium chloride, pH=7.4, by sonicating twice. The subsequent enzymic reaction takes place at 37° C. for 90 minutes. For this purpose, 20 μl of the substrate solution are incubated with 2 μl of inhibitor of appropriate concentration (dissolved in 10% DMSO, using 10% strength DMSO solution for control) and 2 μl of enzyme solution (conditioned medium). Subsequently, 4 μl of the assay mixture are loaded onto an HPTLC plate (silica gel 60, Merck), and the liberated fluorescent dye is separated for detection with a mobile phase (diethyl ether:petroleum spirit:acetic acid [78:22:1]). After evaporation of the mobile phase, the plate is read in a fluorescence scanner. An increased liberation of the fluorescent dye in the uninhibited reaction is observed as a measure of the enzyme activity.
# The enzymatic activity is reduced as a function of the inhibitor concentration used, and the inhibitor concentration at which a half-maximum enzymatic activity is observed is called IC50.
row,Structure (SMILES),IC50
1,"Cc1ccccc1CNC(=O)n1c(=O)n(C)c2cccnc21 [Example 2, N-(2-Methylbenzyl)-1-methyl-2-oxo-1,2-dihydroimidazo[4,5-b]pyridine-3-carboxamide]",0.24 µM
2,"CCCCCCNC(=O)n1c(=O)n(C(=O)OC(C)(C)C)c2c(C)ccnc21 [Example 7, tert-Butyl 3-hexylcarbamoyl-7-methyl-2-oxo-2,3-dihydroimidazo[4,5-b]pyridine-1-carboxylate]",0.146 µM

# Continued by falling IC50, values first:
row,IC50,Structure (SMILES)
1,0.232 µM,"Cn1c(=O)n(C(=O)N[C@@H]2CCc3ccccc32)c2ncccc21 [Example 9, 1-Methyl-2-oxo-1,2-dihydro-imidazo[4,5-b]pyridine-3-carboxylic acid-(R)-indan-1-ylamide]"
2,0.226 µM,"CCCCCCNC(=O)n1c(=O)n(C(=O)NCCCCCC)c2cnccc21 [Example 8, N,N′-Bishexyl-2-oxoimidazo[4,5-c]pyridine-1,3-dicarboxamide]"
3,0.06 µM,"CCCCCCNC(=O)n1c(=O)n(C)c2cccnc21 [Example 1, N-Hexyl-1-methyl-2-oxo-1,2-dihydroimidazo[4,5-b]pyridine-3-carboxamide]"
